# Experimental data as given in patent publication US12030886B2, “Form of ponatinib” (MACFARLAN SMITH LIMITED, priority 2018, dated 2024).
# Test: Solid-form stability under stressed conditions (temperature/relative humidity)
# Assay type: physicochemical
# Settings: for at least four weeks
# Description: Form Z of acetic acid solvated hydrate of ponatinib hydrochloride is stable under stressed conditions of about 40° C./75% RH and about 25° C./97% RH for at least four weeks.
structure (smiles),measurement,setting,value
"Cc1ccc(C(=O)Nc2ccc(CN3CCN(C)CC3)c(C(F)(F)F)c2)cc1C#Cc1cnc2cccnn12 [3-(imidazo[1,2-b]pyridazin-3-ylethynyl)-4-methyl-N-{4-[(4-methylpiperazin-1-yl)methyl]-3-(trifluoromethyl)phenyl}benzamide]",stability under stressed conditions,about 25° C./97% RH,stable
same,stability under stressed conditions,about 40° C./75% RH,stable
